Values after ≈ are worked out from the molar mass of the structure shown.
Tests used:
Format in all cases: cell-based
Aspergillus fumigatus = assay: 3 day MIC, broth microdilution in 25% PDB; details: 72 h
Procedure: (§1) Stock solutions (concentrations of between 4,000 μg/mL to 10,000 μg/mL; stored at −18° C.) of the above antifungals were prepared in dimethyl sulfoxide (DMSO). The stock solutions were further diluted into sterile 25% potato dextrose broth (PDB) so that the diluted solutions could be used for the antifungal susceptibility studies. This way, a typical microdilution study would reach a final ratio of about 0.5-2% v/v of DMSO in 25% PDB.
(§2) Spore inocula were prepared in sterile distilled water with 0.1% Tween® 20 (a polysorbate surfactant), and a hemocytometer was used to determine the spore density. Typically, the spore inoculum was prepared fresh prior to each study, and the inoculum was appropriately diluted to a final concentration of 0.4-1×10^5 spores/mL or colony-forming unit (CFU)/mL in each study. The spore suspension can be stored in a refrigerator at 4° C. for up to one week.
The minimal inhibitory concentrations (MICs) for individual antifungal agents were determined by following a modified broth microdilution protocol CLSI (Clinical and Laboratory Standards Institute) M38-A2 [Clinical and Laboratory Standards Institute (2008) Reference method for broth dilution antifungal susceptibility testing of filamentous fungi—2nd edition: Approved Standard M38-A2, CLSI, Wayne, Pa.] where 25% potato dextrose broth (PDB) was used as the medium. The studies were performed in flat bottom, 96-well microtiter plates (Greiner Bio-One, Frickenhausen, Germany).
(§3) Plates sealed with clear polyester film (VWR, Radnor, Pa.) were incubated at a temperature of about 25° C. The progress of fungal growth was monitored at 48 hours and 72 hours.

Penicillium corylophilum = assay: 3 day MIC, broth microdilution in 25% PDB; details: 72 h, 25% PDB, read-out: 3 day MIC
Procedure: as §1, §2
(§4) The studies were performed in flat bottom, 96-well microtiter plates (Greiner Bio-One, Frickenhausen, Germany).
as §3

[1] = tested on: Penicillium brevicompactum; assay: 3 day MIC, broth microdilution in 25% PDB; details: 72 h, 25% PDB, read-out: 3 day MIC
Procedure: as §1, §2, §4, §3

Penicillium chrysogenum [2] = assay: 3 day MIC, broth microdilution in 25% PDB; details: 72 h, 25% PDB, read-out: 3 day MIC
Procedure: as §1, §2, §4, §3

Penicillium purpurogenum = assay: 3 day MIC, broth microdilution in 25% PDB; details: 72 h; Penicillium purpurogenum; 25% PDB; read-out: 3 day MIC
Procedure: as §1, §2, §4, §3

Stachybotrys chartarum [3] = assay: 3 day MIC, broth microdilution in 25% PDB; details: 72 h, 25% PDB, read-out: 3 day MIC
Procedure: as §1, §2, §4, §3

Alternaria alternata [4] = assay: 3 day MIC, broth microdilution in 25% PDB; details: 72 h, 25% PDB, read-out: 3 day MIC
Procedure: as §1, §2, §4, §3

Penicillium chrysogenum [5] = assay: Fungus resistance test for painted surfaces containing antifungal additives (defacement rating); set-up: key: 10 = no defacement, 0 = completely defaced
Procedure: (§5) A Defacement Rating is measured by estimating the percentage of surface defacement with 10 being no defacement and 0 begin completely defaced.
(§6) This test was used to evaluate the resistance of paint films containing antifungal additives to surface fungal growth.
(§7) Olympic® Home interior flat latex paint (PPG Industries, Pittsburgh, Pa.) and Valspar® QuikHide White flat interior paint (Valspar Corporation, Minneapolis, Minn.) were used for all studies unless otherwise noted. Stock solutions of the antifungal additives of interest were prepared in reagent grade dimethyl sulfoxide (DMSO; Alfa Aesar, Ward Hill, Mass.). Additives were spiked (by adding appropriate amounts of the antifungal stock solutions) into the liquid paint at specified concentrations. Samples of the additive-spiked paint were vigorously mixed with a vortex mixer for at least one minute to ensure uniform dispersion of the additive in the paint. […] Studies that use other brands of paint followed the same protocol as described for those using the Olympic® Home interior flat latex paint and Valspar® QuikHide paint.
(§8) Test surfaces were prepared in triplicate. In most cases, the tested conditions were repeated on a different date, again in triplicate. […] Two coats of paint were applied with a polyester brush to completely cover both faces of the filter paper disc, allowing at least four hours drying time between coats.
(§9) Nutrient-Salts Agar (NSA) medium was prepared according to ASTM method G21-13 in 100×15 mm sterile polystyrene petri dishes (VWR® Radnor, Pa.) with a solidified agar layer of about 3 to about 6 mm (⅛ to ¼ in.) in depth. The agar was allowed to solidify for at least 24 hours before being used. The painted test filter paper discs were placed in the center of the agar plates in a biosafety hood while wearing clean nitrile gloves.
(§10) The paint coatings were evaluated against three representative cellulose-supportable fungi: Stachybotrys chartarum, Penicillium chrysogenum, and Alternaria alternata. […] Fungal isolates of Alternaria alternata and Penicillium chrysogenum were obtained from the Plant Pathology and Environmental Microbiology Department at Penn State University.
(§11) A spore suspension of each of these fungi was prepared by pouring a 20-mL portion of autoclaved deionized water containing 0.01% Tween® 20 onto a subculture of each fungal species. Spores were counted with the use of a hemocytometer (Hausser Scientific, Horsham, Pa.) under a compound light microscope. Spore suspensions of Stachybotrys chartarum and Penicillium chrysogenum were diluted to 1×10^6 spores/mL with autoclaved deionized water. Spore suspensions of Alternaria alternata were used “as is” in the range of 200,000 to 400,000 spores/mL.
(§12) Painted test surfaces were inoculated with a spray bottle or with a sterile cotton-tipped applicator. To inoculate the sample with a spray bottle, the spore suspension was sprayed twice on the painted test discs with an autoclaved spray bottle that delivered approximately 0.14 g of fluid per spray. To inoculate the sample with a cotton-tipped applicator, an autoclaved cotton-tipped applicator was submerged in approximately 400 μL of the spore inoculum solution (spore concentrations described above) and applied evenly over the surface of the painted test surface twice. A fresh autoclaved cotton-tipped applicator was used for the application of each painted disc. All the paint studies with Alternaria alternata and Stachybotrys chartarum were inoculated using the spray bottle method. For studies with Penicillium chrysogenum using Olympic® Home paint, the spray bottle inoculation method was used. For studies with Penicillium chrysogenum using Valspar® QuikHide paint, the cotton-tipped applicator inoculation method was used.
(§13) After inoculation, the NSA agar plates were sealed with Parafilm®.

Stachybotrys chartarum [6] = assay: as above; set-up: key: 10 = no defacement, 0 = completely defaced
Procedure: as §5, §6, §7, §8, §9, §10, §11, §12, §13

Alternaria alternata [7] = assay: as above; set-up: key: 10 = no defacement, 0 = completely defaced
Procedure: as §5, §6, §7, §8, §9, §10, §11, §12, §13

[8] = +100 μg/mL in Olympic Home paint, 7 days
[9] = +100 μg/mL in Olympic Home paint, 14 days
[10] = +100 μg/mL in Olympic Home paint, 21 days
[11] = +10 μg/mL in Olympic Home paint, 7 days
[12] = +10 μg/mL in Olympic Home paint, 14 days
[13] = +10 μg/mL in Olympic Home paint, 21 days

Row | SMILES | MIC (Aspergillus fumigatus) [µg/mL] | MIC (Penicillium corylophilum) [µg/mL] | MIC [1] [µg/mL] | MIC (Penicillium purpurogenum) [µg/mL] | MIC (Stachybotrys chartarum [3]) [µg/mL] | MIC (Alternaria alternata [4]) [µg/mL] | Average defacement rating ± standard deviation (Penicillium chrysogenum [5]; [8]) | Average defacement rating ± standard deviation (Penicillium chrysogenum [5]; [9]) | Average defacement rating ± standard deviation (Penicillium chrysogenum [5]; [10]) | Average defacement rating ± standard deviation (Stachybotrys chartarum [6]; [8]) | Average defacement rating ± standard deviation (Stachybotrys chartarum [6]; [9]) | Average defacement rating ± standard deviation (Alternaria alternata [7]; [8]) | Average defacement rating ± standard deviation (Alternaria alternata [7]; [9]) | Average defacement rating ± standard deviation (Alternaria alternata [7]; [10]) | other results
1 | O=C1C2CC=CCC2C(=O)N1SC(Cl)(Cl)Cl (stereo not shown) [Captan] | 12.5 (≈ 41.6 µM) | 0.78 (≈ 2.59 µM) | 0.78 (≈ 2.59 µM) | 0.78 (≈ 2.59 µM) | 0.39 (≈ 1.3 µM) | 1.6 (≈ 5.32 µM) | 3.2 ± 1.8 | 0.0 ± 0.0 | 0.0 ± 0.0 | 2.9 ± 3.3 | 0.0 ± 0.0 | 0.1 ± 0.3 | 0.0 ± 0.0 | 0.0 ± 0.0 | MIC (Penicillium chrysogenum [2]): 0.78 µg/mL (≈ 2.59 µM); Average defacement rating ± standard deviation (Stachybotrys chartarum [6]; [10]): 0.0 ± 0.0; Average defacement rating ± standard deviation (Alternaria alternata [7]; +100 μg/mL in Olympic Home paint, 7 days, listed as captan): 0.1±0.3
2 | OB1OCc2cc(Cl)ccc21 [Compound B8, 5-chloro-1,3-dihydro-2,1-benzoxaborol-1-ol] | 0.5 (≈ 2.97 µM) | 0.78 (≈ 4.63 µM) | 0.4 (≈ 2.38 µM) | 1.56 (≈ 9.26 µM) | 0.13 (≈ 0.772 µM) | 3.1 (≈ 18.4 µM) | 7.3 ± 1.3 | 0.0 ± 0.0 | 0.0 ± 0.0 | 9.9±0.4 | 8.1 ± 1.9 | 9.9±0.4 | 8.1 ± 1.5 | 7.8±1.5 | Average defacement rating ± standard deviation (Penicillium chrysogenum [5]; +200 μg/mL in Olympic Home paint, 7 days): 10.0±0.0; Average defacement rating ± standard deviation (Penicillium chrysogenum [5]; +200 μg/mL in Olympic Home paint, 14 days): 9.5 ± 1.2; Average defacement rating ± standard deviation (Penicillium chrysogenum [5]; +200 μg/mL in Olympic Home paint, 21 days): 8.7 ± 2.3; Average defacement rating ± standard deviation (Stachybotrys chartarum [6]; [11]): 5.7 ± 4.9; Average defacement rating ± standard deviation (Stachybotrys chartarum [6]; [12]): 0.0 ± 0.0; Average defacement rating ± standard deviation (Stachybotrys chartarum [6]; [13]): 0.0 ± 0.0; Average defacement rating ± standard deviation (Alternaria alternata [7]; [11]): 5.0 ± 1.0; Average defacement rating ± standard deviation (Alternaria alternata [7]; [12]): 4.7 ± 1.2; Average defacement rating ± standard deviation (Alternaria alternata [7]; [13]): 4.7 ± 1.2

From US10160867B2, “Benzoxaborole-containing coating resistant to cellulose-supportable fungus” (THE PENN STATE RESEARCH FOUNDATION, priority 2015, dated 2018)
